According to the OligoGym collection:
Oligonucleotides are given in HELM: sugar(base)linkage, 5' to 3'; d 2'-deoxyribose, r ribose, m 2'-O-methylribose, p phosphate. ss, as = sense and antisense strand

biological target: SOST; assay: reporter assay of Huesken 2005; details: siRNA
Note: test concentration or dose not given here.

Substance	normalised inhibition (eCFP-eYFP dual reporter) [%]
RNA1{r(A)p.r(A)p.r(G)p.r(A)p.r(C)p.r(G)p.r(U)p.r(G)p.r(U)p.r(C)p.r(C)p.r(G)p.r(A)p.r(G)p.r(U)p.r(A)p.r(C)p.r(A)p.r(G)p.d(T)p.d(T)}|RNA2{r(C)p.r(U)p.r(G)p.r(U)p.r(A)p.r(C)p.r(U)p.r(C)p.r(G)p.r(G)p.r(A)p.r(C)p.r(A)p.r(C)p.r(G)p.r(U)p.r(C)p.r(U)p.r(U)p.d(T)p.d(G)}$$$RNA1{StrandType:ss}|RNA2{StrandType:as}$	87.1
RNA1{r(A)p.r(A)p.r(G)p.r(G)p.r(A)p.r(C)p.r(U)p.r(U)p.r(C)p.r(G)p.r(G)p.r(G)p.r(A)p.r(C)p.r(C)p.r(G)p.r(A)p.r(G)p.r(G)p.d(T)p.d(T)}|RNA2{r(C)p.r(C)p.r(U)p.r(C)p.r(G)p.r(G)p.r(U)p.r(C)p.r(C)p.r(C)p.r(G)p.r(A)p.r(A)p.r(G)p.r(U)p.r(C)p.r(C)p.r(U)p.r(U)p.d(G)p.d(A)}$$$RNA1{StrandType:ss}|RNA2{StrandType:as}$	58.7
RNA1{r(A)p.r(C)p.r(A)p.r(A)p.r(C)p.r(A)p.r(A)p.r(G)p.r(A)p.r(C)p.r(C)p.r(A)p.r(U)p.r(G)p.r(A)p.r(A)p.r(C)p.r(C)p.r(G)p.d(T)p.d(T)}|RNA2{r(C)p.r(G)p.r(G)p.r(U)p.r(U)p.r(C)p.r(A)p.r(U)p.r(G)p.r(G)p.r(U)p.r(C)p.r(U)p.r(U)p.r(G)p.r(U)p.r(U)p.r(G)p.r(U)p.d(T)p.d(C)}$$$RNA1{StrandType:ss}|RNA2{StrandType:as}$	52.2
RNA1{r(A)p.r(C)p.r(C)p.r(A)p.r(U)p.r(G)p.r(A)p.r(A)p.r(C)p.r(C)p.r(G)p.r(G)p.r(G)p.r(C)p.r(G)p.r(G)p.r(A)p.r(G)p.r(A)p.d(T)p.d(T)}|RNA2{r(U)p.r(C)p.r(U)p.r(C)p.r(C)p.r(G)p.r(C)p.r(C)p.r(C)p.r(G)p.r(G)p.r(U)p.r(U)p.r(C)p.r(A)p.r(U)p.r(G)p.r(G)p.r(U)p.d(C)p.d(T)}$$$RNA1{StrandType:ss}|RNA2{StrandType:as}$	69.5
RNA1{r(A)p.r(C)p.r(C)p.r(G)p.r(G)p.r(A)p.r(G)p.r(C)p.r(U)p.r(G)p.r(G)p.r(A)p.r(G)p.r(A)p.r(A)p.r(C)p.r(A)p.r(A)p.r(C)p.d(T)p.d(T)}|RNA2{r(G)p.r(U)p.r(U)p.r(G)p.r(U)p.r(U)p.r(C)p.r(U)p.r(C)p.r(C)p.r(A)p.r(G)p.r(C)p.r(U)p.r(C)p.r(C)p.r(G)p.r(G)p.r(U)p.d(G)p.d(G)}$$$RNA1{StrandType:ss}|RNA2{StrandType:as}$	83.3
RNA1{r(A)p.r(C)p.r(G)p.r(U)p.r(G)p.r(U)p.r(C)p.r(C)p.r(G)p.r(A)p.r(G)p.r(U)p.r(A)p.r(C)p.r(A)p.r(G)p.r(C)p.r(U)p.r(G)p.d(T)p.d(T)}|RNA2{r(C)p.r(A)p.r(G)p.r(C)p.r(U)p.r(G)p.r(U)p.r(A)p.r(C)p.r(U)p.r(C)p.r(G)p.r(G)p.r(A)p.r(C)p.r(A)p.r(C)p.r(G)p.r(U)p.d(C)p.d(T)}$$$RNA1{StrandType:ss}|RNA2{StrandType:as}$	74.9
RNA1{r(A)p.r(G)p.r(A)p.r(C)p.r(C)p.r(A)p.r(U)p.r(G)p.r(A)p.r(A)p.r(C)p.r(C)p.r(G)p.r(G)p.r(G)p.r(C)p.r(G)p.r(G)p.r(A)p.d(T)p.d(T)}|RNA2{r(U)p.r(C)p.r(C)p.r(G)p.r(C)p.r(C)p.r(C)p.r(G)p.r(G)p.r(U)p.r(U)p.r(C)p.r(A)p.r(U)p.r(G)p.r(G)p.r(U)p.r(C)p.r(U)p.d(T)p.d(G)}$$$RNA1{StrandType:ss}|RNA2{StrandType:as}$	78.8
RNA1{r(A)p.r(G)p.r(C)p.r(U)p.r(C)p.r(A)p.r(A)p.r(G)p.r(G)p.r(A)p.r(C)p.r(U)p.r(U)p.r(C)p.r(G)p.r(G)p.r(G)p.r(A)p.r(C)p.d(T)p.d(T)}|RNA2{r(G)p.r(U)p.r(C)p.r(C)p.r(C)p.r(G)p.r(A)p.r(A)p.r(G)p.r(U)p.r(C)p.r(C)p.r(U)p.r(U)p.r(G)p.r(A)p.r(G)p.r(C)p.r(U)p.d(C)p.d(C)}$$$RNA1{StrandType:ss}|RNA2{StrandType:as}$	64.7
RNA1{r(A)p.r(G)p.r(C)p.r(U)p.r(G)p.r(C)p.r(U)p.r(G)p.r(U)p.r(G)p.r(U)p.r(C)p.r(C)p.r(C)p.r(G)p.r(G)p.r(U)p.r(G)p.r(G)p.d(T)p.d(T)}|RNA2{r(C)p.r(C)p.r(A)p.r(C)p.r(C)p.r(G)p.r(G)p.r(G)p.r(A)p.r(C)p.r(A)p.r(C)p.r(A)p.r(G)p.r(C)p.r(A)p.r(G)p.r(C)p.r(U)p.d(G)p.d(C)}$$$RNA1{StrandType:ss}|RNA2{StrandType:as}$	66
RNA1{r(A)p.r(G)p.r(G)p.r(U)p.r(G)p.r(C)p.r(G)p.r(C)p.r(C)p.r(U)p.r(G)p.r(G)p.r(U)p.r(G)p.r(G)p.r(C)p.r(C)p.r(U)p.r(C)p.d(T)p.d(T)}|RNA2{r(G)p.r(A)p.r(G)p.r(G)p.r(C)p.r(C)p.r(A)p.r(C)p.r(C)p.r(A)p.r(G)p.r(G)p.r(C)p.r(G)p.r(C)p.r(A)p.r(C)p.r(C)p.r(U)p.d(T)p.d(G)}$$$RNA1{StrandType:ss}|RNA2{StrandType:as}$	71.2
RNA1{r(A)p.r(G)p.r(U)p.r(G)p.r(G)p.r(U)p.r(G)p.r(G)p.r(C)p.r(G)p.r(A)p.r(C)p.r(C)p.r(U)p.r(A)p.r(G)p.r(U)p.r(G)p.r(G)p.d(T)p.d(T)}|RNA2{r(C)p.r(C)p.r(A)p.r(C)p.r(U)p.r(A)p.r(G)p.r(G)p.r(U)p.r(C)p.r(G)p.r(C)p.r(C)p.r(A)p.r(C)p.r(C)p.r(A)p.r(C)p.r(U)p.d(T)p.d(G)}$$$RNA1{StrandType:ss}|RNA2{StrandType:as}$	78.9
RNA1{r(C)p.r(A)p.r(A)p.r(G)p.r(U)p.r(G)p.r(C)p.r(A)p.r(A)p.r(G)p.r(C)p.r(G)p.r(C)p.r(C)p.r(U)p.r(C)p.r(A)p.r(C)p.r(C)p.d(T)p.d(T)}|RNA2{r(G)p.r(G)p.r(U)p.r(G)p.r(A)p.r(G)p.r(G)p.r(C)p.r(G)p.r(C)p.r(U)p.r(U)p.r(G)p.r(C)p.r(A)p.r(C)p.r(U)p.r(U)p.r(G)p.d(C)p.d(A)}$$$RNA1{StrandType:ss}|RNA2{StrandType:as}$	68.8
RNA1{r(C)p.r(A)p.r(A)p.r(G)p.r(U)p.r(G)p.r(G)p.r(U)p.r(G)p.r(G)p.r(C)p.r(G)p.r(A)p.r(C)p.r(C)p.r(U)p.r(A)p.r(G)p.r(U)p.d(T)p.d(T)}|RNA2{r(A)p.r(C)p.r(U)p.r(A)p.r(G)p.r(G)p.r(U)p.r(C)p.r(G)p.r(C)p.r(C)p.r(A)p.r(C)p.r(C)p.r(A)p.r(C)p.r(U)p.r(U)p.r(G)p.d(C)p.d(C)}$$$RNA1{StrandType:ss}|RNA2{StrandType:as}$	64.5
RNA1{r(C)p.r(A)p.r(C)p.r(C)p.r(C)p.r(C)p.r(U)p.r(U)p.r(U)p.r(G)p.r(A)p.r(G)p.r(A)p.r(C)p.r(C)p.r(A)p.r(A)p.r(A)p.r(G)p.d(T)p.d(T)}|RNA2{r(C)p.r(U)p.r(U)p.r(U)p.r(G)p.r(G)p.r(U)p.r(C)p.r(U)p.r(C)p.r(A)p.r(A)p.r(A)p.r(G)p.r(G)p.r(G)p.r(G)p.r(U)p.r(G)p.d(G)p.d(T)}$$$RNA1{StrandType:ss}|RNA2{StrandType:as}$	72.2
